Laboratory results from patent publication US11780845B2 (Relay Therapeutics, Inc., priority 2019, dated 2023).

Legend:
SNU16 cells = assay: SNU16 Cancer Cell Line Proliferation Assay; type: cell-based; settings: Homo sapiens; SNU-16 cells
In short: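 Proliferation read-out: CellTiter Glo chemiluminescence after 96 h compound exposure. Test compounds, serially diluted 3-fold over 11 points from a 10 mM DMSO stock, were added to SNU16 cells plated 24 h earlier at 37 degrees.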

FGFR2 = FGFR2 (Homo sapiens (Human), UniProt P21802); assay: FGFR2 Biochemical Caliper Assay
Protocol: Compounds of the present invention were also tested in a FGFR2 Biochemical Caliper Assay. Compounds were prepared in 10 mM DMSO solution and serially diluted into 11 concentrations by 3-fold dilution. […] 5 uL of ATP solution (100 uM) was added to start the reaction and the plate was incubated for 90 minutes, then 70 uL of stopping buffer (0.5M EDTA) was added to terminate the reaction. Each well was analyzed using EZ reader.

Chain of FGFR2 (P21802 22-821): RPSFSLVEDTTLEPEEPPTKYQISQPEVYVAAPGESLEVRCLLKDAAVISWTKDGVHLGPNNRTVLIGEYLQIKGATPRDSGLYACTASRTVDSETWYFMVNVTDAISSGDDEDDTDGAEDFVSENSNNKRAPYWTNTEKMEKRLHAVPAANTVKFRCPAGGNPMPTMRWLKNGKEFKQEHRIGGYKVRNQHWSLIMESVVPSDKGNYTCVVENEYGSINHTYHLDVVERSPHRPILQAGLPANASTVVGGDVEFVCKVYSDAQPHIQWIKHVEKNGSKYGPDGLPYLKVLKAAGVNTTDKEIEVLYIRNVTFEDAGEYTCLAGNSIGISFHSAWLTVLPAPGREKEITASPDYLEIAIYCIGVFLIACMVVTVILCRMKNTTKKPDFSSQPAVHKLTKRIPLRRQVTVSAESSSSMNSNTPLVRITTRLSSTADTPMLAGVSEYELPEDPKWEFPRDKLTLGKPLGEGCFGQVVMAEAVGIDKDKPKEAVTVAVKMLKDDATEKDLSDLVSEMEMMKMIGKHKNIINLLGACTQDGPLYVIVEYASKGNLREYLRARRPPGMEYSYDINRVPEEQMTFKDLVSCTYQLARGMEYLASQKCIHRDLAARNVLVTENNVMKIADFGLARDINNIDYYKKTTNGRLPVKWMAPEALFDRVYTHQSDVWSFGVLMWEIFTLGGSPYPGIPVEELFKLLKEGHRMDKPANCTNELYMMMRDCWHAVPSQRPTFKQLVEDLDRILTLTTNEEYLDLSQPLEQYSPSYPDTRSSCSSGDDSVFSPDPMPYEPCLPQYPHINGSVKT

C=CC(=O)N1CCC(c2c(-c3ccn(Cc4ccccc4)c(=O)c3)c3c(N)ncnc3n2C)C1 (stereo not drawn) [Example 792]
IC50 (SNU16 cells): 0.1 to 0.25 µM
IC50 (FGFR2): 0.1 to 0.25 µM

C=CC(=O)N1CCC(c2c(-c3cnn(C4CNC4)c3)c3c(N)ncnc3n2C)C1 (stereo not drawn) [Example 793]
IC50 (SNU16 cells): 1 to 100 µM
IC50 (FGFR2): 0.25 to 1 µM

C=CC(=O)N1CCC(c2c(-c3ccc(Cn4ccccc4=O)cc3)c3c(N)ncnc3n2C)C1 (stereo not drawn) [Example 794]
IC50 (SNU16 cells): 1 to 100 µM
IC50 (FGFR2): 1 to 100 µM

C=C(C)C(=O)Nc1ccc(-c2cn3ncnc(N)c3c2-c2ccc(Oc3cccc(C)n3)cc2)cc1 [Example 795]
IC50 (SNU16 cells): 1 to 100 µM
IC50 (FGFR2): 1 to 100 µM

C=C(C)C(=O)Nc1ccc(-c2[nH]c3ncnc(N)c3c2-c2ccc(C(=O)N3CCCC3)cc2)cc1 [Example 796]
IC50 (SNU16 cells): ≤ 0.1 µM
IC50 (FGFR2): < 0.1 µM

C=CC(=O)N1CCC(c2c(-c3ccc(CN4CCCS4(=O)=O)cc3)c3c(N)ncnc3n2C)C1 (stereo not drawn) [Example 797]
IC50 (SNU16 cells): 0.25 to 1 µM
IC50 (FGFR2): 0.25 to 1 µM
